{"source": "patent US7183106B1", "about": "“Bacterial inosine 5′-monophosphate dehydrogenase (“IMPDH”) DNA as a dominant selectable marker in mammals and other eukaryotes” (The United States of America as represented by the United …, priority 2004, dated 2007)", "experiment_in_all_cases": "MPA toxicity by MTT assay", "key": {"[1]": {"system": "MDA-MB-231 cells", "assay_type": "cell-based, human", "method": "(§1) The mammalian cells (2×10^7) (i.e. V79, MDA-MB-231, PC3, COS7) were washed once with phosphate buffered saline (PBS), resuspended in 400 μl of Cytomix buffer, placed in an electroporation cuvette and transfected with 10 μg of DNA by electroporation at 200V, 30 ms, in an ElectroSquarePorator T280 electroporator (BTX, Inc., San Diego, Calif.). Immediately after electroporation, the cuvettes were placed on ice for 10–15 min. After that the cells were washed once in PBS and 1×10^6 viable cells, as determined by trypan blue exclusion, were re-suspended in 10 ml of growth medium in 100 mm tissue culture plates, incubated overnight at 37° C. and treated the next day with 0.8 μg/ml of MPA (stock concentration at 14.2 mg/ml in DMSO, Sigma, St. Louis, Mo.) or 600 μg/ml of G418. For the different assays, cells were obtained from either individual or pooled MPA-resistant colonies. For colony isolation, visible individual colonies were each picked and aspirated into a glass Pasteur pipette and transferred into a well of a 24-well tissue culture plate. The next day, after rinsing the wells with the colonies with PBS and incubation for 1–2 min in a drop of a trypsin/EDTA solution, the cells within each well were dispersed by forceful pipetting. Next, the cells were incubated in growth medium to generate a monolayer culture, which was used to determine the cells' susceptibility to MPA. Cultures were also obtained from single MPA-resistant cells derived from pooled colonies by seeding 2.5 cells/ml into 96-well flat-bottom microtiter plates in 200 μl of growth medium/well and only cultures deriving from wells that were initially found to contain single cells were used. MPA toxicity was determined by the MTT (methylthiazoletetrazolium) assay (described in detail below) while the expression of the green fluorescent protein (GFP) was detected by fluorescence microscopy and/or flow cytometry.\n(§2) Cell survival and proliferation was measured using the MTT assay, which detects active mitochondria and as a result viable cells. For this assay, 2×10^4 cells were suspended in 200 μl of growth medium/well in 96-well flat-bottom microtiter plates with various stimuli and incubated at 37° C. After 6 d, 10 μl of MTT solution (5 mg/ml in PBS) (Sigma, St. Louis, Mo.) was added to each well and the plates were incubated for an additional 4 h at 37° C. In the case of V79 cells, which grow twice as fast as the other cell lines, the MTT solution was added after 3 d. The plates were then centrifuged at 1000 rpm for 5 min, supernatants discarded and 100 µl of DMSO added per well, and the plates were read at 540 nm using a microtiter plate reader."}, "[2]": {"system": "PC3 cells", "assay_type": "cell-based, human", "method": "as §1, §2"}, "[3]": {"system": "COS7 cells", "assay_type": "cell-based, monkey", "method": "as §1, with “Cultures were also obtained from single MPA-resistant cells derived from pooled colonies by seeding 2.5 cells/ml into 96-well flat-bottom microtiter plates in 200 μl of growth medium/well and only cultures deriving from wells that were initially found to contain single cells were used.” left out\nCell survival and proliferation was measured using the MTT assay, which detects active mitochondria and as a result viable cells. […] The plates were then centrifuged at 1000 rpm for 5 min, supernatants discarded and 100 µl of DMSO added per well, and the plates were read at 540 nm using a microtiter plate reader."}, "[4]": {"system": "V79 cells", "assay_type": "cell-based, Chinese hamster", "method": "as §1, §2"}}}
{"compound": "COc1c(C)c2c(c(O)c1C/C=C(\\C)CCC(=O)O)C(=O)OC2", "note": "[MPA, mycophenolic acid]", "values": [{"measurement": "MTT staining of control cultures after 4 weeks of MPA treatment", "setting": "[1]; control (not transfected parental) MDA-MB-231 cultures, 4 weeks", "result": "no MTT staining above background levels"}, {"measurement": "MPA concentration to whose cytotoxic effect the cells were resistant", "setting": "[1]; single cell-derived cultures from pooled MPA-resistant MDA-MB-231 colonies", "result": "up to 50 μg/ml"}, {"measurement": "Time after MPA treatment at which growth inhibition was detected", "setting": "[1]; wild type MDA-MB-231 cells", "result": 6, "unit": "days"}, {"measurement": "MTT staining of control cultures after 4 weeks of MPA treatment", "setting": "[2]; control (not transfected parental) PC3 cultures, 4 weeks", "result": "no MTT staining above background levels"}, {"measurement": "MPA concentration to whose cytotoxic effect the cells were resistant", "setting": "[2]; single cell-derived cultures from pooled MPA-resistant PC3 colonies", "result": "up to 50 μg/ml"}, {"measurement": "Time after MPA treatment at which growth inhibition was detected", "setting": "[2]; wild type PC3 cells", "result": 6, "unit": "days"}, {"measurement": "MTT staining of control cultures after 4 weeks of MPA treatment", "setting": "[3]; control (not transfected parental) COS7 cultures, 4 weeks", "result": "no MTT staining above background levels"}, {"measurement": "MPA concentration to whose cytotoxic effect the cells were resistant", "setting": "[3]; single cell-derived cultures from pooled MPA-resistant COS7 colonies", "result": "up to 50 μg/ml"}, {"measurement": "Time after MPA treatment at which growth inhibition was detected", "setting": "[3]; wild type COS7 cells", "result": 6, "unit": "days"}, {"measurement": "MPA concentration to whose cytotoxic effect the cells were resistant", "setting": "[4]; 7 individual MPA-resistant V79 colonies (pFLAG-IMPDH transfected), MTT assay", "result": "up to 50 μg/ml"}, {"measurement": "MPA concentration at which cells failed to grow", "setting": "[4]; parental (not transfected) V79 cells", "result": "≤ 0.8", "unit": "µg/mL"}, {"measurement": "MPA concentration to whose cytotoxic effect the cells were resistant", "setting": "[4]; single cell-derived cultures from pooled MPA-resistant V79 colonies", "result": "up to 50 μg/ml"}, {"measurement": "Time after MPA treatment at which growth inhibition was detected", "setting": "[4]; wild type V79 cells", "result": 3, "unit": "days"}]}
